Source: US10927096B2, “Ester substituted ion channel blockers and methods for use” (Nocion Therapeutics, Inc., priority 2019, dated 2021)

Molecular target: T1, NaV1.7 (Homo sapiens, UniProt Q15858)
T1 construct: expressed in transfected cells; host or cells: HEK293, tetracycline-inducible
Test: Whole cell patch clamp, internal block of NaV1.7 current
Type: cell-based
Settings: % inhibition at 1 μM test concentration, compound in internal solution, manual whole cell patch clamp
Method: NaV1.7 was expressed upon induction with tetracycline. Cells were cultured in DMEM containing 10% dialyzed Fetal Bovine Serum (VWR, Radnor, Pa.), 1% Glutamax (VWR, Radnor, Pa.), 1% Penicillin-Streptomycin (VWR, Radnor, Pa.), 100 mg/L Hygromycin (Thermo Fisher Scientific, Waltham, Mass. and 5 mg/L Blasticidin (Alfa Aesar, Haverhill, Mass.). Cells were grown and maintained at 37° C. in a humidified environment containing 10% C02 in air. Cells were detached from the culture flask for passage and harvested using 0.05% Trypsin-EDTA (Thermo Fisher Scientific, Waltham, Mass.). To induce NaV1.7, cells were induced with tetracycline (0.1-1 μg/mL, IBI Scientific, Peosta, Iowa) the day before recording and plated onto 24-well plates. Cells were washed with DPBS (VWR, Radnor, Pa.), trypsinized and then triturated five times in 10 mL of growth media to break apart cell aggregates. For one 24-well plate, 2 mL of cell suspension was mixed with 23 mL of fresh growth media and 0.1-1 μg/mL tetracycline added. 1 ml of mixed media with cells was then added to each well of a 24-well plate, with a 12 mm coverslip already placed in the bottom of the well. Cells were then incubated in 37° C. and 10% CO2 overnight.
The intracellular solution contained the following (in mM) CsCl 135, NaCl 10, EGTA 10, HEPES 10, MgCl2 2, adjusted to pH 7.2 with CsOH. The external solution was a normal Ringer solution containing (in mM) NaCl 155, HEPES 10, glucose 10, KCl 3.5, CaCl2 1.5, MgCl2 1 adjusted to pH 7.4 with NaOH. CsCl is from Alfa Aesar, Haverhill, Mass. All other chemicals are from Sigma-Aldrich, St. Louis, Mo. In order to test the degree of internal block by test compounds the compounds were dissolved in internal solution at the indicated test concentration. […] In order to test the degree of external block by test compounds the compounds were dissolved in external solution at the indicated test concentration.
18-24 hours after cells were induced with tetracycline, coverslips were placed into a chamber filled with Normal Ringer solution at room temperature and the chamber placed on a microscope. Pipettes were pulled from borosilicate glass on a P97 puller (Sutter Instrument, Novato, Calif.) and polished with a MF-830 Microforge (Narishige International USA, Inc, Amityville, N.Y.) to have a resistance of 1.5-2.5 MΩ when filled with CsCl internal solution at room temperature. Healthy cells (those that are round and translucent with no visible blemishes) were chosen for seal formation. A seal was formed between the pipette and the cell, and a brief pulse of suction was used to “break in” and establish the whole-cell configuration. The membrane potential was held at −100 mV before the voltage protocol began. Only cells with series resistance between 1.5-5 MΩ were retained for analysis. The voltage protocol was as follows: Cells were held at −100 mV for 12 ms followed by a hyperpolarizing step to −105 mV for 12 ms to monitor the leak. Cells were then stepped back to −100 mV for 40 ms. Cells were then depolarized to −20 mV for 10 ms and then returned to −100 mV for 26 ms (The FIGURE).
Once the recording was started, the voltage protocol was run at 30 second intervals for 5 minutes to get a stable baseline. This was followed by four 30-second periods of 5 Hz stimulation of the same voltage protocol separated by 1 minute of rest which was then followed by 0.33 Hz stimulation after the last train. Currents were recorded using PatchMaster software with Heka EPC10 (HEKA Electronics, Lambrecht, Germany). Only cells with inward current amplitudes at −20 mV between 400 pA and 4 nA were accepted. In addition, cells having leak currents greater than 10% of their current amplitudes were discarded.
The data was plotted using the Patchmaster software (HEKA Electronics, Lambrecht, Germany) and analyzed by plotting the minimum current during the voltage step to −20 mV (peak inward current) as a function of time. […]

T1 sequence (Q15858 whole entry): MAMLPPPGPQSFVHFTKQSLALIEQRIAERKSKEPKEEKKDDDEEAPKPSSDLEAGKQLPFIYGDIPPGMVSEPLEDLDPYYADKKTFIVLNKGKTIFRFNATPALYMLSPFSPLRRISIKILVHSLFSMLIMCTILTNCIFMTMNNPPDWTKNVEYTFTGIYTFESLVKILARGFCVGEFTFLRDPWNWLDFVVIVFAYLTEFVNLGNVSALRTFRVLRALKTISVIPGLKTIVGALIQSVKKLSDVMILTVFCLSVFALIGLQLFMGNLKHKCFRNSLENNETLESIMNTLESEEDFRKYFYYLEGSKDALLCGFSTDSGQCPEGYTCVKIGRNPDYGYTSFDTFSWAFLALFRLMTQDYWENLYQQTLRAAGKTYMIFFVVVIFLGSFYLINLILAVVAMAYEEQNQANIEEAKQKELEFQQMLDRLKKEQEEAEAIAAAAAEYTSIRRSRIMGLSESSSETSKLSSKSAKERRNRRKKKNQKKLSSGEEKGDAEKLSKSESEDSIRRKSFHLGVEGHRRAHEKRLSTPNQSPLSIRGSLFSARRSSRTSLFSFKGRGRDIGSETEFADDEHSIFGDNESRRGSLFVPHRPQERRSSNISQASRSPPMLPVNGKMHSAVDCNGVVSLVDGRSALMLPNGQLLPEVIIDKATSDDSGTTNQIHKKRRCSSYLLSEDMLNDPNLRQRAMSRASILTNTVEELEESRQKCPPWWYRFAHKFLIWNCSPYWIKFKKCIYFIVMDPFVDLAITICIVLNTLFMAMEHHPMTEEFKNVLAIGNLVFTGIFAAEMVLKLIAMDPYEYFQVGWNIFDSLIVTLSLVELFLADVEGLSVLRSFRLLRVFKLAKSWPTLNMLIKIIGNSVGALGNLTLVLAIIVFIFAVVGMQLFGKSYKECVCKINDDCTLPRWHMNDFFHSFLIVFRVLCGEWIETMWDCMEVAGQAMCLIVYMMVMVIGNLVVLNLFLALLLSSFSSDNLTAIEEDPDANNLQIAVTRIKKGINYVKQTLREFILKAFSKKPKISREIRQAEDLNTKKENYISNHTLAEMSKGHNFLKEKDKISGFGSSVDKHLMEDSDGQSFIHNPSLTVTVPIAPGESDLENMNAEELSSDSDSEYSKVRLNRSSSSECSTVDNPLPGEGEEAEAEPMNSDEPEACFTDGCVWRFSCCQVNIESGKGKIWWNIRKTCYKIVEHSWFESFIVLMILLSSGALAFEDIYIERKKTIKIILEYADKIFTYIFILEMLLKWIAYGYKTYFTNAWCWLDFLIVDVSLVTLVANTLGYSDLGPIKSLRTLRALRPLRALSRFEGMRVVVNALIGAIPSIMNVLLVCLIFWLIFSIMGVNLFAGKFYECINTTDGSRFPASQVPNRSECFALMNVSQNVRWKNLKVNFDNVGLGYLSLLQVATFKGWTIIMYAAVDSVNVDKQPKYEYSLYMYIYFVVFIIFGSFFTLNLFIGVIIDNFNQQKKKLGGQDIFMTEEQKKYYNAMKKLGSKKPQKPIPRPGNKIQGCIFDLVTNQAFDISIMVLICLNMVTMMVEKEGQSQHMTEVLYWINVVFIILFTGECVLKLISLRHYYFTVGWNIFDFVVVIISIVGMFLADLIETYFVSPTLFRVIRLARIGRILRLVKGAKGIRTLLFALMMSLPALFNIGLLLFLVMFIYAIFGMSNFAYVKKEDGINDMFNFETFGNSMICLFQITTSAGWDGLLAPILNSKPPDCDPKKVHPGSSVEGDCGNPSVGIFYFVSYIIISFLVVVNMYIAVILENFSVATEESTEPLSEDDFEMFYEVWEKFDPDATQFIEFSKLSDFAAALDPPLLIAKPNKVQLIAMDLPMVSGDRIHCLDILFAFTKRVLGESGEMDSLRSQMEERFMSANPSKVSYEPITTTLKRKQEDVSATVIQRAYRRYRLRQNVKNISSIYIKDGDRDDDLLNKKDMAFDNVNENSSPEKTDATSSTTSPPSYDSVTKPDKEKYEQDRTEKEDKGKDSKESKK

| Compound | NaV1.7 Intracellular Inhibition | inhibition at 1 µM (read-out: NaV1.7 Intracellular Inhibition) [%] |
| --- | --- | --- |
| CCCCOC(=O)C1CCC[N+](CC)(CC(=O)Nc2c(C)cccc2C(=O)OC)C1.[I-] (mixture of isomers) [Compound 15] | ++ (70-30%) |  |
| CC[N+]1(CC(=O)Nc2c(C)cccc2C(=O)OC)CCCC(C(=O)OC2CCCCC2)C1 (mixture of isomers) [Compound 27] | ++ (70-30%) |  |
| CC[N+]1(CC(=O)Nc2c(C)cccc2C(=O)OC)CCCC(C(=O)N2CCCC2)C1 (mixture of isomers) [Compound 54] | ++ (70-30%) |  |
| CNC(=O)C[N+]1(CC(=O)Nc2c(C)cccc2C(=O)OC)CCCC(c2ccccc2)C1.[Br-] (mixture of isomers) [Compound 59] | +++ (90-70%) |  |
| COC(=O)c1cccc(C)c1NC(=O)C[N+]1(CC(N)=O)CCCC(c2ccccc2)C1 (mixture of isomers) [Compound 61] | +++ (90-70%) |  |
| CCN(CC)C(=O)C[N+]1(CC(=O)Nc2c(C)cccc2C(=O)OC)CCCC(c2ccccc2)C1 (mixture of isomers) [Compound 62] | ++ (70-30%) |  |
| COC(=O)C[N+]1(CC(=O)Nc2c(C)cccc2C(=O)OC)CCCC(c2ccccc2)C1 (mixture of isomers) [Compound 64] | ++ (70-30%) |  |
| CC[N+]1(CC(=O)Nc2c(C)cccc2C(=O)OC)CCCC(c2ccccc2)C1 (mixture of isomers) [Compound 65] | ++++ (>90%) |  |
| CC[N+]1(CC(=O)Nc2c(C)cccc2C(=O)OC)CCCC(C(=O)OCC(C)C)C1.[I-] (stereo not shown) [Compound 23] | +++ (90-70%) |  |
| CCCOC(=O)C1CCC[N+](CC)(CC(=O)Nc2c(C)cccc2C(=O)OC)C1.[I-] (stereo not shown) [Compound 26] | ++ (70-30%) |  |
| CCNC(=O)C1CCC[N+](CC(=O)Nc2c(C)cccc2C(=O)OC)(Cc2ccccc2)C1.O=C([O-])C(F)(F)F (stereo not shown) [Compound 33] | ++ (70-30%) |  |
| CC[N+]1(CC(=O)Nc2c(C)cccc2C(=O)OC)CCCC(C(=O)N2CCCCC2)C1.[I-] (stereo not shown) [Compound 45] | ++ (70-30%) |  |
| CC[N+]1(CC(=O)Nc2c(C)cccc2C(=O)OC)CCCC(C(=O)NC)C1.[I-] (stereo not shown) [Compound 46] | + (<30%) |  |
| CC[N+]1(CC(=O)Nc2c(C)cccc2C(=O)OC)CCCC(C(N)=O)C1.[I-] (stereo not shown) [Compound 55] | +++ (90-70%) |  |
| CC[N+]1(CC(=O)Nc2c(C)cccc2C(=O)OC)CCCC(C(=O)NC2CCCCC2)C1.[I-] (stereo not shown) [Compound 56] | ++ (70-30%) |  |
| CCc1cccc(C[N+]2(C(CC)C(=O)Nc3c(C)cccc3C(=O)OC)CCCCC2)c1.O=C[O-] (stereo not shown) [Compound 58] | +++ (90-70%) |  |
| COC(=O)c1cccc(C)c1NC(=O)C[N+]1(CC(=O)N(C)C)CCCC(c2ccccc2)C1.O=C([O-])C(F)(F)F (stereo not shown) [Compound 60] | ++ (70-30%) |  |
| CCOC(=O)C[N+]1(CC(=O)Nc2c(C)cccc2C(=O)OC)CCCC(c2ccccc2)C1.O=C([O-])C(F)(F)F (stereo not shown) [Compound 63] | +++ (90-70%) |  |
| COC(=O)c1cccc(C)c1NC(=O)C[n+]1cccc(-c2ccccc2)c1.[Br-] [Compound 66] | +++ (90-70%) |  |
| CCOC(=O)c1cccc(C)c1NC(=O)C[n+]1cccc(-c2ccccc2)c1 [Compound 67] | +++ (90-70%) |  |
| COC(=O)c1cccc(C)c1NC(=O)C[n+]1cccn1C1CCCCC1.[Br-] [Compound 69] | ++ (70-30%) |  |
| Cc1cccc(C(=O)OC(C)(C)C)c1NC(=O)C[n+]1cccc(-c2ccccc2)c1.[Br-] [Compound 71] | ++ (70-30%) |  |
| Cc1cccc(C(=O)OC(C)(C)C)c1NC(=O)C[n+]1cccn1C1CCCCC1.[Br-] [Compound 72] | ++ (70-30%) |  |

Other lines, results leading:

| NaV1.7 Intracellular Inhibition | inhibition at 1 µM (read-out: NaV1.7 Intracellular Inhibition) [%] | Compound |
| --- | --- | --- |
| ++ (70-30%) |  | CCCCOC(=O)C1CCC[N+](CC(=O)Nc2c(C)cccc2C(=O)OC)(Cc2ccccc2)C1.[Br-] (mixture of isomers) [Compound 14] |
| +++ (90-70%) |  | CCOC(=O)C1CCC[N+](CC(=O)Nc2c(C)cccc2C(=O)OC)(Cc2ccccc2)C1 (mixture of isomers) [Compound 16] |
| ++ (70-30%) |  | CCCNC(=O)C1CCC[N+](CC(=O)Nc2c(C)cccc2C(=O)OC)(Cc2ccccc2)C1 (mixture of isomers) [Compound 28] |
| ++ (70-30%) |  | CNC(=O)C1CCC[N+](CC(=O)Nc2c(C)cccc2C(=O)OC)(Cc2ccccc2)C1 (mixture of isomers) [Compound 31] |
| ++ (70-30%) |  | COC(=O)c1cccc(C)c1NC(=O)C[N+]1(Cc2ccccc2)CCCC(C(=O)N(C)C)C1 (mixture of isomers) [Compound 40] |
| ++ (70-30%) |  | COC(=O)c1cccc(C)c1NC(=O)C[N+]1(Cc2ccccc2)CCCC(C(=O)N2CCCC2)C1 (mixture of isomers) [Compound 43] |
| ++++ (>90%) |  | COC(=O)c1cccc(C)c1NC(=O)C[N+]1(Cc2ccccc2)CCCCCC1 [Compound 1] |
| ++++ (>90%) |  | CCOC(=O)c1cccc(C)c1NC(=O)C[N+]1(Cc2ccccc2)CCCCCC1 [Compound 2] |
| ++ (70-30%) |  | COC(=O)c1cccc(C)c1NC(=O)C[N+]1(Cc2ccccc2)CCCCC1.[Br-] [Compound 3] |
| +++ (90-70%) |  | CCOC(=O)c1cccc(C)c1NC(=O)C[N+]1(Cc2ccccc2)CCCCC1.[Br-] [Compound 4] |
| ++ (70-30%) |  | COC(=O)c1cccc(C)c1NC(=O)C[N+]1(Cc2ccccc2)CCCC1 [Compound 5] |
| +++ (90-70%) |  | CCCOC(=O)c1cccc(C)c1NC(=O)C[N+]1(Cc2ccccc2)CCCCCC1.[Br-] [Compound 6] |
| ++++ (>90%) |  | Cc1cccc(C(=O)OC(C)C)c1NC(=O)C[N+]1(Cc2ccccc2)CCCCCC1.[Br-] [Compound 7] |
| +++ (90-70%) |  | CCOC(=O)c1cccc(C)c1NC(=O)C[N+]1(Cc2ccccc2)CCCC1.[Br-] [Compound 9] |
| ++ (70-30%) |  | COC(=O)c1cccc(C)c1NC(=O)C[N+]1(Cc2ccccc2)CCCC(C(N)=O)C1.[Br-] (stereo not shown) [Compound 30] |
| ++ (70-30%) |  | COC(=O)c1cccc(C)c1NC(=O)C[N+]1(Cc2ccccc2)CCCC(C(=O)NC(C)C)C1.[Br-] (stereo not shown) [Compound 32] |
| ++ (70-30%) |  | COC(=O)c1cccc(C)c1NC(=O)C[N+]1(Cc2ccccc2)CCCC(C(=O)N2CCCCCC2)C1.[Br-] (stereo not shown) [Compound 34] |
| ++ (70-30%) |  | COC(=O)c1cccc(C)c1NC(=O)C[N+]1(Cc2ccccc2)CCCC(C(=O)NCC(C)C)C1.[Br-] (stereo not shown) [Compound 36] |
| + (<30%) |  | COC(=O)c1cccc(C)c1NC(=O)C[N+]1(Cc2ccccc2)CCCC(C(=O)NC2CCCC2)C1.[Br-] (stereo not shown) [Compound 41] |
|  | 30 to 70 | CCC(C(=O)Nc1c(C)cccc1C(=O)OC)[N+]1(Cc2ccccc2)CCCCC1 (stereo not shown) [Compound 57] |
